Source: the NIST ThermoML archive (doi:10.1016/j.jct.2006.01.012)
± gives the expanded uncertainty stated by the source.

Assay: xn = mol fraction of the nth substance listed
Conditions: Liquid; for mass density: isochoric method; for viscosity: Capillary tube (Ostwald / Ubbelohde) method

CCCCCCCC [octane] + CCCCCCC
Conditions | mass density [kg/m3] | viscosity [mPa·s]
293.15 K, 100 kPa, x2 = 0.2808 | 697.8 ± 0.9 | –
293.15 K, 100 kPa, x2 = 0.5427 | 693.2 ± 0.8 | –
293.15 K, 100 kPa, x2 = 0.7906 | 688.3 ± 0.8 | –
298.15 K, 100 kPa, x2 = 0.2808 | 694 ± 0.8 | –
298.15 K, 100 kPa, x2 = 0.5427 | 689.2 ± 0.8 | 0.436 ± 0.014
298.15 K, 100 kPa, x2 = 0.7906 | 684.2 ± 0.8 | –
298.15 K, 5000 kPa, x2 = 0.5427 | – | 0.461 ± 0.015
298.15 K, 10000 kPa, x2 = 0.5427 | – | 0.487 ± 0.016
298.22 K, 100 kPa, x2 = 0.7906 | – | 0.408 ± 0.013
298.22 K, 5000 kPa, x2 = 0.7906 | – | 0.435 ± 0.014
298.22 K, 10000 kPa, x2 = 0.7906 | – | 0.459 ± 0.015
298.39 K, 100 kPa, x2 = 0.2808 | – | 0.467 ± 0.015
298.39 K, 5000 kPa, x2 = 0.2808 | – | 0.493 ± 0.016
298.39 K, 10000 kPa, x2 = 0.2808 | – | 0.521 ± 0.017
299.24 K, 3824 kPa, x2 = 0.5427 | 691.8 ± 0.8 | –
299.24 K, 6865 kPa, x2 = 0.5427 | 694.6 ± 0.8 | –
299.24 K, 9316 kPa, x2 = 0.5427 | 696.4 ± 0.9 | –
303.15 K, 100 kPa, x2 = 0.2808 | 689.9 ± 0.8 | –
303.15 K, 100 kPa, x2 = 0.5427 | 685 ± 0.8 | –
303.15 K, 100 kPa, x2 = 0.7906 | 680.1 ± 0.8 | –
303.39 K, 100 kPa, x2 = 0.5427 | – | 0.414 ± 0.014
303.39 K, 5000 kPa, x2 = 0.5427 | – | 0.435 ± 0.014
303.39 K, 10000 kPa, x2 = 0.5427 | – | 0.459 ± 0.015
303.85 K, 100 kPa, x2 = 0.2808 | – | 0.441 ± 0.014
303.85 K, 5000 kPa, x2 = 0.2808 | – | 0.465 ± 0.015
303.85 K, 10000 kPa, x2 = 0.2808 | – | 0.492 ± 0.016
305.74 K, 100 kPa, x2 = 0.7906 | – | 0.379 ± 0.012
305.74 K, 5000 kPa, x2 = 0.7906 | – | 0.402 ± 0.013
305.74 K, 10000 kPa, x2 = 0.7906 | – | 0.425 ± 0.014
306.18 K, 2942 kPa, x2 = 0.2808 | 690.3 ± 0.8 | –
306.18 K, 7021 kPa, x2 = 0.2808 | 693.8 ± 0.8 | –
306.18 K, 8826 kPa, x2 = 0.2808 | 695.3 ± 0.8 | –
307.62 K, 2608 kPa, x2 = 0.7906 | 678.6 ± 0.8 | –
307.62 K, 7178 kPa, x2 = 0.7906 | 683 ± 0.8 | –
307.62 K, 9140 kPa, x2 = 0.7906 | 684.6 ± 0.8 | –
308.15 K, 100 kPa, x2 = 0.2808 | 686.1 ± 0.8 | –
308.15 K, 100 kPa, x2 = 0.5427 | 680.9 ± 0.8 | –
308.15 K, 100 kPa, x2 = 0.7906 | 675.9 ± 0.8 | –
312.71 K, 100 kPa, x2 = 0.2808 | – | 0.4 ± 0.013
312.71 K, 5000 kPa, x2 = 0.2808 | – | 0.424 ± 0.014
312.71 K, 10000 kPa, x2 = 0.2808 | – | 0.446 ± 0.015
312.74 K, 100 kPa, x2 = 0.5427 | – | 0.374 ± 0.012
312.74 K, 5000 kPa, x2 = 0.5427 | – | 0.396 ± 0.013
312.74 K, 10000 kPa, x2 = 0.5427 | – | 0.419 ± 0.014
312.75 K, 100 kPa, x2 = 0.7906 | – | 0.352 ± 0.012
312.75 K, 5000 kPa, x2 = 0.7906 | – | 0.373 ± 0.012
312.75 K, 10000 kPa, x2 = 0.7906 | – | 0.395 ± 0.013
313.15 K, 100 kPa, x2 = 0.2808 | 681.6 ± 0.8 | –
313.15 K, 100 kPa, x2 = 0.5427 | 676.6 ± 0.8 | –
313.15 K, 100 kPa, x2 = 0.7906 | 671.6 ± 0.8 | –
318.15 K, 100 kPa, x2 = 0.2808 | 677.4 ± 0.8 | –
318.15 K, 100 kPa, x2 = 0.5427 | 672.7 ± 0.8 | –
318.15 K, 100 kPa, x2 = 0.7906 | 667.3 ± 0.8 | –
321.21 K, 100 kPa, x2 = 0.5427 | – | 0.338 ± 0.011
321.21 K, 5000 kPa, x2 = 0.5427 | – | 0.359 ± 0.012
321.21 K, 10000 kPa, x2 = 0.5427 | – | 0.38 ± 0.012
321.71 K, 100 kPa, x2 = 0.2808 | – | 0.362 ± 0.012
321.71 K, 5000 kPa, x2 = 0.2808 | – | 0.384 ± 0.013
321.71 K, 10000 kPa, x2 = 0.2808 | – | 0.405 ± 0.013
323.15 K, 100 kPa, x2 = 0.2808 | 673.2 ± 0.8 | –
323.15 K, 100 kPa, x2 = 0.5427 | 668.5 ± 0.8 | –
323.15 K, 100 kPa, x2 = 0.7906 | 663 ± 0.8 | –
323.82 K, 100 kPa, x2 = 0.7906 | – | 0.314 ± 0.01
323.82 K, 5000 kPa, x2 = 0.7906 | – | 0.334 ± 0.011
323.82 K, 10000 kPa, x2 = 0.7906 | – | 0.353 ± 0.012
331.45 K, 4121 kPa, x2 = 0.7906 | 658.7 ± 0.8 | –
331.45 K, 6311 kPa, x2 = 0.7906 | 662.6 ± 0.8 | –
331.45 K, 8523 kPa, x2 = 0.7906 | 665.5 ± 0.8 | –
331.45 K, 10350 kPa, x2 = 0.7906 | 667.1 ± 0.8 | –
331.55 K, 4119 kPa, x2 = 0.5427 | 665 ± 0.8 | –
331.55 K, 5944 kPa, x2 = 0.5427 | 668.1 ± 0.8 | –
331.55 K, 8203 kPa, x2 = 0.5427 | 670.9 ± 0.8 | –
331.55 K, 10100 kPa, x2 = 0.5427 | 672.6 ± 0.8 | –
333.15 K, 100 kPa, x2 = 0.2808 | 664.9 ± 0.8 | –
333.15 K, 100 kPa, x2 = 0.5427 | 659.9 ± 0.8 | –
333.15 K, 100 kPa, x2 = 0.7906 | 654.4 ± 0.8 | –
333.54 K, 100 kPa, x2 = 0.2808 | – | 0.322 ± 0.011
333.54 K, 5000 kPa, x2 = 0.2808 | – | 0.341 ± 0.011
333.54 K, 10000 kPa, x2 = 0.2808 | – | 0.36 ± 0.012
333.73 K, 100 kPa, x2 = 0.5427 | – | 0.3 ± 0.01
333.73 K, 5000 kPa, x2 = 0.5427 | – | 0.319 ± 0.01
333.73 K, 10000 kPa, x2 = 0.5427 | – | 0.338 ± 0.011
335.62 K, 100 kPa, x2 = 0.7906 | – | 0.281 ± 0.009
335.62 K, 5000 kPa, x2 = 0.7906 | – | 0.298 ± 0.01
335.62 K, 10000 kPa, x2 = 0.7906 | – | 0.316 ± 0.01
338.15 K, 100 kPa, x2 = 0.2808 | 661 ± 0.8 | –
338.15 K, 100 kPa, x2 = 0.5427 | 655.6 ± 0.8 | –
338.15 K, 100 kPa, x2 = 0.7906 | 650.1 ± 0.8 | –
343.15 K, 100 kPa, x2 = 0.2808 | 656.8 ± 0.8 | –
343.15 K, 100 kPa, x2 = 0.5427 | 651.2 ± 0.8 | –
343.15 K, 100 kPa, x2 = 0.7906 | 645.6 ± 0.8 | –
344.21 K, 100 kPa, x2 = 0.7906 | – | 0.26 ± 0.009
344.21 K, 5000 kPa, x2 = 0.7906 | – | 0.276 ± 0.009
344.21 K, 10000 kPa, x2 = 0.7906 | – | 0.292 ± 0.01
344.39 K, 100 kPa, x2 = 0.2808 | – | 0.291 ± 0.01
344.39 K, 5000 kPa, x2 = 0.2808 | – | 0.308 ± 0.01
344.39 K, 10000 kPa, x2 = 0.2808 | – | 0.325 ± 0.011
344.4 K, 100 kPa, x2 = 0.5427 | – | 0.273 ± 0.009
344.4 K, 5000 kPa, x2 = 0.5427 | – | 0.29 ± 0.01
344.4 K, 10000 kPa, x2 = 0.5427 | – | 0.307 ± 0.01
352.61 K, 2844 kPa, x2 = 0.5427 | 648 ± 0.8 | –
352.61 K, 8237 kPa, x2 = 0.5427 | 654.9 ± 0.8 | –
352.61 K, 10040 kPa, x2 = 0.5427 | 657 ± 0.8 | –
352.62 K, 100 kPa, x2 = 0.5427 | – | 0.255 ± 0.008
352.62 K, 5000 kPa, x2 = 0.5427 | – | 0.27 ± 0.009
352.62 K, 10000 kPa, x2 = 0.5427 | – | 0.286 ± 0.009
353.2 K, 100 kPa, x2 = 0.7906 | – | 0.239 ± 0.008
353.2 K, 5000 kPa, x2 = 0.7906 | – | 0.255 ± 0.008
353.2 K, 10000 kPa, x2 = 0.7906 | – | 0.27 ± 0.009
354.08 K, 100 kPa, x2 = 0.2808 | – | 0.267 ± 0.009
354.08 K, 5000 kPa, x2 = 0.2808 | – | 0.283 ± 0.009
354.08 K, 10000 kPa, x2 = 0.2808 | – | 0.299 ± 0.01
357.15 K, 100 kPa, x2 = 0.2808 | 644.3 ± 0.8 | –
357.15 K, 100 kPa, x2 = 0.5427 | 638.8 ± 0.8 | –
357.15 K, 100 kPa, x2 = 0.7906 | 633 ± 0.8 | –
362.65 K, 4800 kPa, x2 = 0.2808 | 646.1 ± 0.8 | –
362.65 K, 6720 kPa, x2 = 0.2808 | 649 ± 0.8 | –
362.65 K, 9300 kPa, x2 = 0.2808 | 652.5 ± 0.8 | –
363.71 K, 100 kPa, x2 = 0.2808 | – | 0.245 ± 0.008
363.71 K, 5000 kPa, x2 = 0.2808 | – | 0.261 ± 0.009
363.71 K, 10000 kPa, x2 = 0.2808 | – | 0.276 ± 0.009
363.74 K, 100 kPa, x2 = 0.5427 | – | 0.232 ± 0.008
363.74 K, 5000 kPa, x2 = 0.5427 | – | 0.247 ± 0.008
363.74 K, 10000 kPa, x2 = 0.5427 | – | 0.26 ± 0.009
364.62 K, 100 kPa, x2 = 0.7906 | – | 0.216 ± 0.007
364.62 K, 5000 kPa, x2 = 0.7906 | – | 0.232 ± 0.008
364.62 K, 10000 kPa, x2 = 0.7906 | – | 0.246 ± 0.008
365.46 K, 3432 kPa, x2 = 0.7906 | 631.8 ± 0.8 | –
365.46 K, 8983 kPa, x2 = 0.7906 | 639.4 ± 0.8 | –
365.46 K, 9963 kPa, x2 = 0.7906 | 640.9 ± 0.8 | –
